Where a name gives a salt, the structure may show the parent alone.
Assays:
[1] = tested on: wound area of mouse dorsum; test: Mouse 3-mm excisional wound model with topical creams (FN, β-catenin, Lgr6 localization); assay type: in vivo; conditions: higher folate diet 10 mg/kg from one week prior to wounding
From the text: For the mouse studies the animals were divided by random assignment into experimental groups, using both sexes. Folic acid and folic acid/myo-inositol in combination were topically administered to the wound directly with an inert vanishing cream (provided by Carrollwood Pharmacy) as the vehicle of administration or also in combination with an orally administered dietary folic acid supplement. […] The creams contained (i) FA only; two doses of […] combination of higher MI to FA ratio, (iii) a combination of lower MI to FA ratio, (iv) MI only and (v) vehicle control cream. […] The control animals were maintained on normal animal chow containing 3.3 mg/kg FA to maintain health of the animals. After wounding, animals were housed separately and maintained on their respective folate diets. The animals were maintained in cages that were wood chip free on a dust free base for the first several days, to prevent bedding and bedding dust from getting into the freshly made wounds to lessen chances of infection. The animals were anesthetized using isoflurane inhalation. One 3-mm excisional circular wound was made using a dermal biopsy punch, followed by application of the experimental or control topical cream on the wound. The excised area remained uncovered and healing was closely monitored daily until wound was closed. At day 15 after wounding, the animal was euthanized. […]

[2] = seven years after FA fortification; Quebec, Canada; cited from earlier work
[3] = tested on: HTR-8/SVneo cells; test: In vitro wound assay of human trophoblast cell migration; assay type: cell-based; conditions: HCy exposure experiments; scrape wound
From the text: In previous studies by the inventors analyzing the effects of lithium and the metabolite homocysteine (HCy) on early heart development, the results were similar. Both factors inhibited Wnt/β-catenin-mediated gene expression during induction stages of cardiogenesis. […] Folate protects the embryo from these adverse effects (Han et al., 2009). It was also noted that normal placental development was adversely affected by Li and HCy. A human trophoblast cell line, HTR-8/SVneo cells, was used to determine whether Li or HCy affect the migration of these cells in vitro and whether FA or FA/myo-inositol would protect the cells from adverse effects of the two cardiac teratogens. HCy exposure experiments were conducted. […] The wound edges are depicted by a white line in B. In panel A, it can be seen that the wound area is smaller. Administration of a combination of FA/myo-inositol, FA alone or myo-inositol alone, enhanced the expression of NMHC-IIB and FN to facilitate cell migration.

[4] = tested on: Medium-Chain Acyl CoA Dehydrogenase (MCAD) protein; test: Immunostaining of MCAD protein in E15.5 hearts; assay type: in vivo, mouse; conditions: E15.5 heart; versus control
Protocol: Li+-, and HCys-, and control, NaCl-exposed, embryos were fixed in 4% paraformaldehyde in PBS, paraffin embedded, and sectioned. Sections were immunostained with MCAD antibodies (Sigma, St. Louis, Mo.) for the protein product of Acadm gene expression. Primary antibody localization was visualized with Cy3-secondary antibodies. Localization of gene and protein expression was analyzed with a Nikon Optiphot II phase microscope (Nikon Instruments, Inc., Melville, N.Y.). Digitized images were obtained with a Nikon DS-L2 Camera unit.

[5] = tested on: E15.5 mouse hearts; test: Histology of HCy-exposed E15.5 mouse hearts; assay type: in vivo; conditions: single HCy exposure on E6.75
Protocol: Li- and HCy-exposed embryos, and control NaCl-exposed embryos, were fixed in 4% paraformaldehyde in phosphate buffered saline (PBS, pH 7.4) and paraffin sectioned. Sections were stained with hematoxylin-eosin, and some were stained with Toluidine Blue, and examined. Cardiac regions were analyzed for the presence of any obvious malformations using a Nikon SMZ1500 fluorescent stereomicroscope, and digitized images were obtained using a Nikon DS-L2 camera unit.
Malformed and small aortic valves (AoV in H) and pulmonary valves (PV in I) were apparent. […] This was exemplified by a post-stenotic dilatation of the pulmonary artery, apparent in FIG. 12L. […] In summary, in addition to the general cardiac hypertrophy, the viable cardiac anomalies that were observed on E15.5 following a single HCy exposure on E6.75 related primarily to derivatives of the SHF, that is the outflow, the right ventricle, and the tricuspid and SL valves.

Nc1nc2ncc(CNc3ccc(C(=O)N[C@@H](CCC(=O)O)C(=O)O)cc3)nc2c(=O)[nH]1 [FA, folic acid]
healing with dietary supplementation [1]: no differences in healing
yearly decrease in the prevalence of severe heart defects [2]: 6%
expression of NMHC-IIB and FN [3]: enhanced

N[C@H]1CCSC1=O [HCy, L-homocysteine thiolactone hydrochloride]
MCAD protein [4]: increased
cardiac pathology on E15.5 [5]: right and left side cardiac hypertrophy

Reference: patent US9308210B2, “Method for modulating canonical Wnt pathway using folate and inositol” (University of South Florida, priority 2009, dated 2016)
